Reference: patent publication US4138554A, “7-[D-α-(4-Hydroxy-1,5-naphthyridine-3-carboxamido)-α-phenyl (and p-hydroxyphenyl)acetamido]-3-carbamoyloxymethyl-3-cephem-4-carboxylic acids” (priority 1977, dated 1979)
Like-named read-outs stand apart in the source and are kept apart here.

Experiments:
Format in all cases: cell-based
Klebsiella sp. = assay: MIC by serial two-fold agar dilution (Mueller-Hinton agar), Klebsiella sp.; conditions: Klebsiella sp., Table 1; read-out: MIC
Outline: (§1)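 Read-out is the minimum inhibitory concentration from agar plates (Mueller-Hinton) carrying serial two-fold drug dilutions, inoculated via Steers' apparatus. Strains: 31 test organisms in primary screening, 61 P. aeruginosa isolates for secondary evaluation.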

P. aeruginosa = assay: MIC by serial two-fold agar dilution (Mueller-Hinton agar), P. aeruginosa, primary screening; conditions: Pseudomonas aeruginosa, Table 1, read-out: MIC
Outline: (§2)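 Agar dilution MICs were determined on Mueller-Hinton medium with two-fold compound steps and Steers' multipoint inoculation, across 31 primary-screen organisms and 61 P. aeruginosa strains.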

E. cloacae = assay: MIC by serial two-fold agar dilution (Mueller-Hinton agar), E. cloacae; conditions: Enterobacter cloacae, Table 1
Outline: as §2

P. mirabilis = assay: MIC by serial two-fold agar dilution (Mueller-Hinton agar), P. mirabilis; conditions: Proteus mirabilis; P. mirabilis, Table 1; read-out: MIC
Outline: as §1

Pseudomonas aeruginosa = assay: MIC by agar dilution against 61 strains of Pseudomonas aeruginosa, secondary evaluation; conditions: for Mean % Relative Activity (SPBC = 100%): P. aerug. (61 strains); for MIC: Pseudomonas aeruginosa
Outline: as §2

## NC(=O)OCC1=C(C(=O)O)N2C(=O)C(NC(=O)[C@H](NC(=O)c3cnc4cccnc4c3O)c3ccccc3)[C@H]2SC1 (stereo partly drawn) [BB-S520, Sodium 7-[D-α-(4-hydroxy-1,5-naphthyridine-3-carboxamido)-α-phenylacetamido]-3-carbamoyloxymethyl-3-cephem-4-carboxylate]
Klebsiella sp.
  MIC: 3.1 µg/mL
P. aeruginosa; P. aeruginosa (1st line)
  MIC: 1.6 µg/mL
P. aeruginosa; P. aeruginosa (2nd line)
  MIC: 3.1 µg/mL
P. aeruginosa; P. aeruginosa (3rd line)
  MIC: 3.1 µg/mL
P. aeruginosa; P. aeruginosa (4th line)
  MIC: 12.5 µg/mL
P. aeruginosa; P. aeruginosa (5th line)
  MIC: 1.6 µg/mL
P. aeruginosa; P. aeruginosa (6th line)
  MIC: 1.6 µg/mL
E. cloacae; E. cloacae (1st line)
  MIC: 12.5 µg/mL
E. cloacae; E. cloacae (2nd line)
  MIC: 50 µg/mL
E. cloacae; E. cloacae (3rd line)
  MIC: 25 µg/mL
P. mirabilis
  MIC: 0.4 µg/mL
Pseudomonas aeruginosa; 61 strains of Pseudomonas aeruginosa, Table 7
  Rel. Act. (SBPC=100%): 1016%
Pseudomonas aeruginosa; lot 1, Table 5
  Mean % Relative Activity (SPBC = 100%): 714%
Pseudomonas aeruginosa; lot 2, Table 5
  Mean % Relative Activity (SPBC = 100%): 1016%
Pseudomonas aeruginosa; Ps. aeruginosa (61 strains), from geometric means of MICs in Table 2
  Mean % Relative Activity (Sulbenicillin = 100%): 714%
Pseudomonas aeruginosa; 61 strains of Pseudomonas aeruginosa, Table 7, read-out: Geometric Mean of MIC
  MIC: 2.4 µg/mL
Pseudomonas aeruginosa; BBRI Pa-No. 1, D15, Table 2, read-out: MIC
  MIC: 12.5 µg/mL
Pseudomonas aeruginosa; BBRI Pa-No. 1, D15, Table 7, read-out: MIC
  MIC: 6.3 µg/mL
Pseudomonas aeruginosa; BBRI Pa-No. 2, VA, Table 2, read-out: MIC
  MIC: 3.1 µg/mL
Pseudomonas aeruginosa; BBRI Pa-No. 2, VA, Table 7, read-out: MIC
  MIC: 3.1 µg/mL
Pseudomonas aeruginosa; BBRI Pa-No. 3, 1449VA, Table 2, read-out: MIC
  MIC: 1.6 µg/mL
Pseudomonas aeruginosa; BBRI Pa-No. 3, 1449VA, Table 7, read-out: MIC
  MIC: 0.8 µg/mL
Pseudomonas aeruginosa; BBRI Pa-No. 4, H9 D113, Table 2, read-out: MIC
  MIC: 12.5 µg/mL
Pseudomonas aeruginosa; BBRI Pa-No. 4, H9 D113, Table 7, read-out: MIC
  MIC: 1.6 µg/mL
Pseudomonas aeruginosa; BBRI Pa-No. 5, M4865KC, Table 2, read-out: MIC
  MIC: 3.1 µg/mL
Pseudomonas aeruginosa; BBRI Pa-No. 5, N4865KC, Table 7, read-out: MIC
  MIC: 0.8 µg/mL
Pseudomonas aeruginosa; BBRI Pa-No. 6, No. 5, Table 2, read-out: MIC
  MIC: 25 µg/mL
Pseudomonas aeruginosa; BBRI Pa-No. 6, No. 5, Table 7, read-out: MIC
  MIC: 12.5 µg/mL
Pseudomonas aeruginosa; BBRI Pa-No. 7, Table 2, read-out: MIC
  MIC: 6.3 µg/mL
Pseudomonas aeruginosa; BBRI Pa-No. 7, Table 7, read-out: MIC
  MIC: 3.1 µg/mL
Pseudomonas aeruginosa; BBRI Pa-No. 8, Table 2, read-out: MIC
  MIC: 3.1 µg/mL
Pseudomonas aeruginosa; BBRI Pa-No. 8, Table 7, read-out: MIC
  MIC: 3.1 µg/mL
Pseudomonas aeruginosa; BBRI Pa-No. 9, Yale, Table 2, read-out: MIC
  MIC: 3.1 µg/mL
Pseudomonas aeruginosa; BBRI Pa-No. 9, Yale, Table 7, read-out: MIC
  MIC: 1.6 µg/mL
Pseudomonas aeruginosa; BBRI Pa-No. 10, Table 2, read-out: MIC
  MIC: 50 µg/mL
Pseudomonas aeruginosa; BBRI Pa-No. 10, Table 7, read-out: MIC
  MIC: 25 µg/mL
Pseudomonas aeruginosa; BBRI Pa-No. 11, Table 2, read-out: MIC
  MIC: 3.1 µg/mL
Pseudomonas aeruginosa; BBRI Pa-No. 11, Table 7, read-out: MIC
  MIC: 3.1 µg/mL
Pseudomonas aeruginosa; BBRI Pa-No. 12, Table 2, read-out: MIC
  MIC: 6.3 µg/mL
Pseudomonas aeruginosa; BBRI Pa-No. 12, Table 7, read-out: MIC
  MIC: 3.1 µg/mL
Pseudomonas aeruginosa; BBRI Pa-No. 14, Table 2, read-out: MIC
  MIC: 3.1 µg/mL
Pseudomonas aeruginosa; BBRI Pa-No. 14, Table 7, read-out: MIC
  MIC: 0.8 µg/mL
Pseudomonas aeruginosa; BBRI Pa-No. 15, Table 2, read-out: MIC
  MIC: 12.5 µg/mL
Pseudomonas aeruginosa; BBRI Pa-No. 15, Table 7, read-out: MIC
  MIC: 6.3 µg/mL
Pseudomonas aeruginosa; BBRI Pa-No. 16, No. 130, Table 2, read-out: MIC
  MIC: 0.8 µg/mL
Pseudomonas aeruginosa; BBRI Pa-No. 16, No. 130, Table 7, read-out: MIC
  MIC: 0.4 µg/mL
Pseudomonas aeruginosa; BBRI Pa-No. 17, H6 D114, Table 2, read-out: MIC
  MIC: 6.3 µg/mL
Pseudomonas aeruginosa; BBRI Pa-No. 17, H6 D114, Table 7, read-out: MIC
  MIC: 3.1 µg/mL
Pseudomonas aeruginosa; BBRI Pa-No. 18, H8 D121, Table 2, read-out: MIC
  MIC: 6.3 µg/mL
Pseudomonas aeruginosa; BBRI Pa-No. 18, H8 D121, Table 7, read-out: MIC
  MIC: 1.6 µg/mL
Pseudomonas aeruginosa; BBRI Pa-No. 19, Table 2, read-out: MIC
  MIC: 1.6 µg/mL
Pseudomonas aeruginosa; BBRI Pa-No. 19, Table 7, read-out: MIC
  MIC: 0.8 µg/mL
Pseudomonas aeruginosa; BBRI Pa-No. 20, Table 2, read-out: MIC
  MIC: 3.1 µg/mL
Pseudomonas aeruginosa; BBRI Pa-No. 20, Table 7, read-out: MIC
  MIC: 3.1 µg/mL
Pseudomonas aeruginosa; BBRI Pa-No. 21, Table 2, read-out: MIC
  MIC: 3.1 µg/mL
Pseudomonas aeruginosa; BBRI Pa-No. 21, Table 7, read-out: MIC
  MIC: 3.1 µg/mL
Pseudomonas aeruginosa; BBRI Pa-No. 23, Table 2, read-out: MIC
  MIC: 6.3 µg/mL
Pseudomonas aeruginosa; BBRI Pa-No. 23, Table 7, read-out: MIC
  MIC: 1.6 µg/mL
Pseudomonas aeruginosa; BBRI Pa-No. 24, Table 2, read-out: MIC
  MIC: 50 µg/mL
Pseudomonas aeruginosa; BBRI Pa-No. 24, Table 7, read-out: MIC
  MIC: 25 µg/mL
Pseudomonas aeruginosa; BBRI Pa-No. 25, Table 2, read-out: MIC
  MIC: 1.6 µg/mL
Pseudomonas aeruginosa; BBRI Pa-No. 25, Table 7, read-out: MIC
  MIC: 0.8 µg/mL
Pseudomonas aeruginosa; BBRI Pa-No. 26, Ps32, Table 2, read-out: MIC
  MIC: 3.1 µg/mL
Pseudomonas aeruginosa; BBRI Pa-No. 26, Ps32, Table 7, read-out: MIC
  MIC: 6.3 µg/mL
Pseudomonas aeruginosa; BBRI Pa-No. 28, CPH1C527/72, Table 7, read-out: MIC
  MIC: 3.1 µg/mL
Pseudomonas aeruginosa; BBRI Pa-No. 28, CPH10527/72, Table 2, read-out: MIC
  MIC: 6.3 µg/mL
Pseudomonas aeruginosa; BBRI Pa-No. 29, D122, Table 2, read-out: MIC
  MIC: 1.6 µg/mL
Pseudomonas aeruginosa; BBRI Pa-No. 29, D122, Table 7, read-out: MIC
  MIC: 1.6 µg/mL
Pseudomonas aeruginosa; BBRI Pa-No. 30, Table 2, read-out: MIC
  MIC: 3.1 µg/mL
Pseudomonas aeruginosa; BBRI Pa-No. 30, Table 7, read-out: MIC
  MIC: 1.6 µg/mL
Pseudomonas aeruginosa; BBRI Pa-No. 31, Table 2, read-out: MIC
  MIC: 1.6 µg/mL
Pseudomonas aeruginosa; BBRI Pa-No. 31, Table 7, read-out: MIC
  MIC: 0.8 µg/mL
Pseudomonas aeruginosa; BBRI Pa-No. 32, Table 2, read-out: MIC
  MIC: 3.1 µg/mL
Pseudomonas aeruginosa; BBRI Pa-No. 32, Table 7, read-out: MIC
  MIC: 1.6 µg/mL
Pseudomonas aeruginosa; BBRI Pa-No. 33, Table 2, read-out: MIC
  MIC: 12.5 µg/mL
